Source: patent US7253146B2, “Template-fixed peptidomimetics with antimicrobial activity” (Polyphor Ltd, priority 2001, dated 2007)
Values after ≈ are worked out from the molar mass of the structure shown. Where a SMILES comes first, the peptide text is derived from it. [ ]: non-standard residue; d: D form. Cha = N[C@@H](CC1CCCCC1)C(=O)O

Tests used:
Candida albicans = system: Candida albicans
Experimental: (§1) Lyophilized peptides were weighed on a Microbalance (Mettler MT5) and dissolved in sterile water containing 0.01% acetic acid Tachyplesin was purchased from Bachem Ltd. (Bubendorf Switzerland).
(§2) The antimicrobial activities of the peptides were determined by the standard NCCLS broth microdilution method (see ref 1, below) examined in sterile 96-wells plates (Nunclon polystyrene microtiter plates) in a total volume of 100 μl. […] 10^6 colony forming units (CFU)/ml for bacteria or 5×10^3 CFU/ml for Candida. Aliquots (50 μl) of the innocula were added to 50 μl of MH broth containing the peptide in serial twofold dilutions. The microorganisms used were Escherichia coli (ATCC 25922), Pseudomnonas aeruginosa (P. aeruginosa) (ATCC 27853), Stahylococcus aureus (ATCC 29213 and ATCC 25923) and Candida albicans. A selected number of peptides were screened for activity against a larger panel of gram-negative strains. These strains were; Escherichia coli ATCC 43827 and clinical isolates of Pseudomonas (P. aeruginosa V07 14482, P. aeruginosa 15288, P. aeruginosa V02 15328 and P. aeruginosa V09 16085) and Acinetobacter (Acinetobacter V04 19905/1, Acinetobacter V12 21143/1 and Acinetobacter V12 21193/1).

[1] = system: Escherichia coli (ATCC 25922); conditions: ATCC 25922
Experimental: as §1, §2

[2] = system: Staphylococcus aureus ATCC 25923; conditions: ATCC 25923
Experimental: as §1, §2

[3] = system: Staphylococcus aureus ATCC 29213; conditions: ATCC 29213
Experimental: as §1, §2

Row | SMILES | MIC Candida albicans (Candida albicans) [µg/mL] | MIC Escherichia coli ATCC 25922 [1] [µg/mL] | MIC Staphylococcus aureus ATCC 25923 [2] [µg/mL] | MIC Staphylococcus aureus ATCC 29213 [3] [µg/mL]
1 | CC(C)C[C@@H]1NC(=O)[C@H](CCCNC(=N)N)NC(=O)[C@H](CCCNC(=N)N)NC(=O)[C@H](CCCNC(=N)N)NC(=O)[C@H](Cc2ccc(O)cc2)NC(=O)[C@H](Cc2ccc(O)cc2)NC(=O)[C@H](CCCNC(=N)N)NC(=O)[C@@H]2CCCN2C(=O)[C@H]2CCCN2C(=O)[C@H](CCCNC(=N)N)NC(=O)[C@H](Cc2ccc(O)cc2)NC1=O [Example 11] (cyclo(RYYRRRLYR[dP]P)) | 100 (≈ 63.4 µM) | 25 (≈ 15.8 µM) | 100 (≈ 63.4 µM) | 100 (≈ 63.4 µM)
2 | CC(C)C[C@@H]1NC(=O)[C@H](CCCNC(=N)N)NC(=O)[C@H](CCCNC(=N)N)NC(=O)[C@H](CCCNC(=N)N)NC(=O)[C@H](Cc2ccccc2)NC(=O)[C@H](Cc2ccccc2)NC(=O)[C@H](CC(C)C)NC(=O)[C@H](CCCNC(=N)N)NC(=O)[C@@H]2CCCN2C(=O)[C@H]2CCCN2C(=O)[C@H](CCCNC(=N)N)NC(=O)[C@H](Cc2ccccc2)NC1=O [Example 36] (cyclo(RLFFRRRLFR[dP]P)) | 25 (≈ 15.2 µM) | 25 (≈ 15.2 µM) | 50 (≈ 30.4 µM) | 25 (≈ 15.2 µM)
3 | CC(C)C[C@@H]1NC(=O)[C@H](CCCNC(=N)N)NC(=O)[C@H](CCCNC(=N)N)NC(=O)[C@H](CCCNC(=N)N)NC(=O)[C@H](Cc2ccccc2)NC(=O)[C@H](Cc2ccccc2)NC(=O)[C@H](CC(C)C)NC(=O)[C@H](CC(C)C)NC(=O)[C@@H]2CCCN2C(=O)[C@H]2CCCN2C(=O)[C@H](CCCNC(=N)N)NC(=O)[C@H](Cc2ccccc2)NC1=O [Example 40] (cyclo(LLFFRRRLFR[dP]P)) | 25 (≈ 15.6 µM) | 25 (≈ 15.6 µM) | 50 (≈ 31.2 µM) | 25 (≈ 15.6 µM)
4 | CC(C)C[C@@H]1NC(=O)[C@H](Cc2ccccc2)NC(=O)[C@H](CC(C)C)NC(=O)[C@H](CCCNC(=N)N)NC(=O)[C@@H]2CCCN2C(=O)[C@H]2CCCN2C(=O)[C@H](CC(C)C)NC(=O)[C@H](CCCNC(=N)N)NC(=O)[C@H](Cc2ccccc2)NC(=O)[C@H](Cc2ccccc2)NC(=O)[C@H](CCCNC(=N)N)NC(=O)[C@H](CCCNC(=N)N)NC(=O)[C@H](CCCNC(=N)N)NC1=O [Example 59] (cyclo(RLFLRRRFFRL[dP]P)) | 25 (≈ 14.2 µM) | 4.7 (≈ 2.68 µM) | 50 (≈ 28.5 µM) | 25 (≈ 14.2 µM)
5 | CC(C)C[C@@H]1NC(=O)[C@H](Cc2ccccc2)NC(=O)[C@H](CC(C)C)NC(=O)[C@H](Cc2ccccc2)NC(=O)[C@@H]2CCCN2C(=O)[C@H]2CCCN2C(=O)[C@H](CCCNC(=N)N)NC(=O)[C@H](CCCNC(=N)N)NC(=O)[C@H](Cc2ccccc2)NC(=O)[C@H](CC(C)C)NC(=O)[C@H](CCCNC(=N)N)NC(=O)[C@H](CCCNC(=N)N)NC(=O)[C@H](CCCNC(=N)N)NC1=O [Example 63] (cyclo(FLFLRRRLFRR[dP]P)) | 12.5 (≈ 7.12 µM) | 6.2 (≈ 3.53 µM) | 25 (≈ 14.2 µM) | 12.5 (≈ 7.12 µM)
6 | CC(C)C[C@@H]1NC(=O)[C@H](Cc2ccc(O)cc2)NC(=O)[C@H](CCCNC(=N)N)NC(=O)[C@H](CCCNC(=N)N)NC(=O)[C@H](CCCNC(=N)N)NC(=O)[C@H](Cc2ccc(O)cc2)NC(=O)[C@H](CC(C)C)NC(=O)[C@H](CC(C)C)NC(=O)[C@H](Cc2ccc(O)cc2)NC(=O)[C@H](CCCNC(=N)N)NC(=O)[C@@H]2CCCN2C(=O)[C@H]2CCCN2C(=O)[C@H](CCCNC(=N)N)NC(=O)[C@H](CCCNC(=N)N)NC(=O)[C@H](Cc2ccc(O)cc2)NC(=O)[C@H](CC(C)C)NC1=O [Example 71] (cyclo(RYLLYRRRYLLYRR[dP]P)) | 50 (≈ 22.4 µM) | 12.5 (≈ 5.59 µM) | 12.5 (≈ 5.59 µM) | 12.5 (≈ 5.59 µM)
7 | CC(C)C[C@@H]1NC(=O)[C@H](CCCNC(=N)N)NC(=O)[C@H](CCCCN)NC(=O)[C@@H]2CCCN2C(=O)[C@H]2CCCN2C(=O)[C@H](CCCNC(=N)N)NC(=O)[C@H](CC(C)C)NC(=O)[C@H](C(C)C)NC(=O)[C@H](CCCCN)NC(=O)[C@H](C(C)C)NC(=O)[C@H](Cc2ccc(O)cc2)NC(=O)[C@H](Cc2c[nH]c3ccccc23)NC(=O)[C@H](CCCNC(=N)N)NC(=O)[C@H](CCCNC(=N)N)NC(=O)[C@H](CCCNC(=N)N)NC(=O)[C@H](Cc2c[nH]c3ccccc23)NC(=O)[C@H](Cc2ccc(O)cc2)NC(=O)[C@H](CCCCN)NC1=O [Example 87] (cyclo(KRLKYWRRRWYVKVLR[dP]P)) | 12.5 (≈ 5.03 µM) | 6.2 (≈ 2.5 µM) | 9.4 (≈ 3.79 µM) | 9.4 (≈ 3.79 µM)
8 | CC(C)C[C@@H]1NC(=O)[C@H](CCCNC(=N)N)NC(=O)[C@H](CC(C)C)NC(=O)[C@@H]2CCCN2C(=O)[C@H]2CCCN2C(=O)[C@H](C(C)C)NC(=O)[C@H](CCCNC(=N)N)NC(=O)[C@H](Cc2ccc(O)cc2)NC(=O)[C@H](CCCCN)NC(=O)[C@H](Cc2ccccc2)NC(=O)[C@H](CCCNC(=N)N)NC(=O)[C@H](CCCNC(=N)N)NC(=O)[C@H](Cc2ccc(O)cc2)NC(=O)[C@H](CCCCN)NC1=O [Example 103] (cyclo(LRLKYRRFKYRV[dP]P)) | 12.5 (≈ 6.67 µM) | 9.4 (≈ 5.02 µM) | 25 (≈ 13.3 µM) | 25 (≈ 13.3 µM)
9 | CC(C)C[C@@H]1NC(=O)[C@H](CCCNC(=N)N)NC(=O)[C@H](CC2CCCCC2)NC(=O)[C@@H]2CCCN2C(=O)[C@H]2CCCN2C(=O)[C@H](C(C)C)NC(=O)[C@H](CCCNC(=N)N)NC(=O)[C@H](Cc2ccc(O)cc2)NC(=O)[C@H](CCCCN)NC(=O)[C@H](Cc2c[nH]c3ccccc23)NC(=O)[C@H](CCCNC(=N)N)NC(=O)[C@H](CCCNC(=N)N)NC(=O)[C@H](CCCCN)NC(=O)[C@H](CCCCN)NC1=O [Example 121] (cyclo([Cha]RLKKRRWKYRV[dP]P)) | 6.2 (≈ 3.23 µM) | 25 (≈ 13 µM) | 6.2 (≈ 3.23 µM) | 6.2 (≈ 3.23 µM)
10 | CC[C@H](C)[C@@H]1NC(=O)[C@H](CCCCN)NC(=O)[C@H](Cc2c[nH]c3ccccc23)NC(=O)[C@H](CCCNC(=N)N)NC(=O)[C@H](CCCNC(=N)N)NC(=O)[C@H](CCCCN)NC(=O)[C@H](CCCCN)NC(=O)[C@H](CC(C)C)NC(=O)[C@H](CCCNC(=N)N)NC(=O)[C@H](CC(C)C)NC(=O)[C@@H]2CCCN2C(=O)[C@H]2CCCN2C(=O)[C@H](C(C)C)NC(=O)[C@H](CCCNC(=N)N)NC1=O [Example 152] (cyclo(LRLKKRRWKIRV[dP]P)) | 12.5 (≈ 6.84 µM) | 25 (≈ 13.7 µM) | 25 (≈ 13.7 µM) | 50 (≈ 27.3 µM)
